# Results taken from ChEMBL document CHEMBL1201862, “PubChem BioAssay data set” (2004).
# The source made the active and inactive calls.
# Columns and labels:
# [1] = molecular target: T1, Alkaline phosphatase, tissue-nonspecific isozyme (Homo sapiens, UniProt P05186); test: human TNAP enzyme inhibitors, SAR follow-up, biochemical, luminescent, dose response (AID 1056)
# T1 sequence (P05186 whole entry): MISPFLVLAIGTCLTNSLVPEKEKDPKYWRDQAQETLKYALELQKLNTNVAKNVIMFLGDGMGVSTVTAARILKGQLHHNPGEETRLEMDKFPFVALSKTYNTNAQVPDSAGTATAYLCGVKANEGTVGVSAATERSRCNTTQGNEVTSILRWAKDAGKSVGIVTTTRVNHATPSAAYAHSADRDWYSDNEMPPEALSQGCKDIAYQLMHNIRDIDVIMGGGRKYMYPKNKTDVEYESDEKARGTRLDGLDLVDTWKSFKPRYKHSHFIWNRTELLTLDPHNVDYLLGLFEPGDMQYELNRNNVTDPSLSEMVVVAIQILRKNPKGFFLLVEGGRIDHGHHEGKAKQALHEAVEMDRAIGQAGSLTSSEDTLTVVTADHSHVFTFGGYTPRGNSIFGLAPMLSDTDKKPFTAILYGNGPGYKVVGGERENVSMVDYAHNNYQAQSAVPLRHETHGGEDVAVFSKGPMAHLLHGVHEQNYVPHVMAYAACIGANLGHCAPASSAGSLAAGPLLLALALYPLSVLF
# [2] = molecular target: Glyceraldehyde-3-phosphate dehydrogenase (Homo sapiens, UniProt P04406)
# Chain of Glyceraldehyde-3-phosphate dehydrogenase (P04406 whole entry): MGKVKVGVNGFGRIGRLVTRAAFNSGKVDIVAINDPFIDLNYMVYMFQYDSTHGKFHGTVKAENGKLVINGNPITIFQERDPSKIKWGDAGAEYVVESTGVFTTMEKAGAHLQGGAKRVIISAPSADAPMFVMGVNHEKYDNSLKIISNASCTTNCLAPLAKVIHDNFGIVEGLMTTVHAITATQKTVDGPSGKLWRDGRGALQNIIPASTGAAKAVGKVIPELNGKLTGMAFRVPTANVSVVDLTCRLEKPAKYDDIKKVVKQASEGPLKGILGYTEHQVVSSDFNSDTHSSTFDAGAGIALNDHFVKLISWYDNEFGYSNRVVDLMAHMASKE
# Hexokinase = molecular target: T2, Hexokinase (Trypanosoma brucei, UniProt Q38C41); test: Confirmation assay for inhibitors of Trypanosoma brucei hexokinase 1-Analogue-first series. [Related pubchem assays (depositor defined):AID1430, AID1632, AID2516, AID2560, AID2579, AID2600, AID449725, AID492951]; assay type: functional
# T2 sequence (Q38C41 whole entry): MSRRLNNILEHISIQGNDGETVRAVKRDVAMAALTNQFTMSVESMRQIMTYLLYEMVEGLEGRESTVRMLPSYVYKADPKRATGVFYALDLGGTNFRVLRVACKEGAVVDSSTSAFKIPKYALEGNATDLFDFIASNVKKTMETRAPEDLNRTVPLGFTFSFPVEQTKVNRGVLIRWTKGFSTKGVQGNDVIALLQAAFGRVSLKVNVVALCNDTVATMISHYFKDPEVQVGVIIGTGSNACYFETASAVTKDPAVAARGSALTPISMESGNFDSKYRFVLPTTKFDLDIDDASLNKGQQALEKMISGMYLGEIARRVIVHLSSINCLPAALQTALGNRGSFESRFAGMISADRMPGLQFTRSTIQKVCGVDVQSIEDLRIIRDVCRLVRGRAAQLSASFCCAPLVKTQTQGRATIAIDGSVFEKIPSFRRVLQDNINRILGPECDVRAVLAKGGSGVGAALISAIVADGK
# [3] = molecular target: DNA dC->dU-editing enzyme APOBEC-3A (Homo sapiens, UniProt P31941); test: Dose Response confirmation of small molecule APOBEC3A DNA Deaminase Inhibitors via a fluorescence-based single-stranded DNA deaminase assay. [Related pubchem assays (depositor defined):AID493011, AID493024]; assay type: functional
# Chain of DNA dC->dU-editing enzyme APOBEC-3A (P31941 whole entry): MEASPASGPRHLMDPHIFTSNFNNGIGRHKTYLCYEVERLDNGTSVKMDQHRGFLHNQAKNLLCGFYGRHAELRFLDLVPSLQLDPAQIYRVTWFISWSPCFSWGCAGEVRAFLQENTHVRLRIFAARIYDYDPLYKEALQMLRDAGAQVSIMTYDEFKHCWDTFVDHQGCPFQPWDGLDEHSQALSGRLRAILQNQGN
# [4] = molecular target: DNA dC->dU-editing enzyme APOBEC-3G (Homo sapiens, UniProt Q9HC16); assay type: functional;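 also: Dose-response counterscreen measuring inhibition of APOBEC3G DNA deaminase activity, run while confirming APOBEC3A inhibitors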
# Chain of DNA dC->dU-editing enzyme APOBEC-3G (Q9HC16 whole entry): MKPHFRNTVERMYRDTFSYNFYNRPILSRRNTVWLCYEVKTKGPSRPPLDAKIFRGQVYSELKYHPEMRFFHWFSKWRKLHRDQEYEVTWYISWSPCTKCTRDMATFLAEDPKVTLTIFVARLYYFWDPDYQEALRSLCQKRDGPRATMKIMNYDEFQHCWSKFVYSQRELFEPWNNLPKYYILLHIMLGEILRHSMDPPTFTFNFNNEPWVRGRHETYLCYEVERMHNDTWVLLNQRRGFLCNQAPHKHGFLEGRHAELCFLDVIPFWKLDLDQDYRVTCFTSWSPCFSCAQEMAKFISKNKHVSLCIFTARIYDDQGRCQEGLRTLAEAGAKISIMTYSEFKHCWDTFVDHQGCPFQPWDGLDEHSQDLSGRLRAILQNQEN
# [5] = molecular target: T3, Neuropeptide Y receptor type 2 (Homo sapiens, UniProt P49146); assay type: functional, cell-based;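 also: HEK293 cells expressing the receptor and a CNG channel; stimulus was NPY near EC95 followed by isoproterenol to raise cAMP; antagonist potency measured as restoring cAMP signal that NPY suppresses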
# T3 sequence (P49146 whole entry): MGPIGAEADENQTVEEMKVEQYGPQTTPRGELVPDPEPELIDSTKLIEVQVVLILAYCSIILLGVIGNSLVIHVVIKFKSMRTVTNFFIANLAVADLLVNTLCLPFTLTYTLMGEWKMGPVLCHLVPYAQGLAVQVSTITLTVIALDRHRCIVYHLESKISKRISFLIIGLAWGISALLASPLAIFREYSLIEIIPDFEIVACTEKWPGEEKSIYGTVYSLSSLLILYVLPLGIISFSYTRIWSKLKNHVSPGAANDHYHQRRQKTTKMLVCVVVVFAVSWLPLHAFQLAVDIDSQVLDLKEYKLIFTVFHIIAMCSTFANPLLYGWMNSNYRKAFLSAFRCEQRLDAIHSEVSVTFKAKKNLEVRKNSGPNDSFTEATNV
# [6] = molecular target: T4, Neuropeptide Y receptor type 1 (Homo sapiens, UniProt P25929); assay type: functional;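 also: HEK293 cells with a CNG channel challenged with NPY then isoproterenol; potency as antagonist that reverses NPY suppression of cAMP signal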
# T4 sequence (P25929 whole entry): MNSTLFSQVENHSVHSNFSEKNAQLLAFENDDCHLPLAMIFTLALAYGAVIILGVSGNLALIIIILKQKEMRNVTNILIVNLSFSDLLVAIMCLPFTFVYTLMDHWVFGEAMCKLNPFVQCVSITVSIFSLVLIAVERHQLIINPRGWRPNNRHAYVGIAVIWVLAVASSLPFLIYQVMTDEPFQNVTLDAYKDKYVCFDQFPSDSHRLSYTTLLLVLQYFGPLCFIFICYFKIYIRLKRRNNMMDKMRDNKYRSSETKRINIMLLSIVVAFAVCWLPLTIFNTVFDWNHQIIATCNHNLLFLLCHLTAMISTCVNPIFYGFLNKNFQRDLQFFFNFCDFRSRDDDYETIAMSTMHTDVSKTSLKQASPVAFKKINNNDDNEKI
# [7] = molecular target: Peroxisome proliferator-activated receptor gamma/Nuclear receptor coactivator 1 (Homo sapiens, UniProt P37231); assay type: functional;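 also: agonist potency as compounds enhance coactivator SRC-1 recruitment to PPARgamma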
# Chain of Peroxisome proliferator-activated receptor gamma/Nuclear receptor coactivator 1 (P37231 whole entry): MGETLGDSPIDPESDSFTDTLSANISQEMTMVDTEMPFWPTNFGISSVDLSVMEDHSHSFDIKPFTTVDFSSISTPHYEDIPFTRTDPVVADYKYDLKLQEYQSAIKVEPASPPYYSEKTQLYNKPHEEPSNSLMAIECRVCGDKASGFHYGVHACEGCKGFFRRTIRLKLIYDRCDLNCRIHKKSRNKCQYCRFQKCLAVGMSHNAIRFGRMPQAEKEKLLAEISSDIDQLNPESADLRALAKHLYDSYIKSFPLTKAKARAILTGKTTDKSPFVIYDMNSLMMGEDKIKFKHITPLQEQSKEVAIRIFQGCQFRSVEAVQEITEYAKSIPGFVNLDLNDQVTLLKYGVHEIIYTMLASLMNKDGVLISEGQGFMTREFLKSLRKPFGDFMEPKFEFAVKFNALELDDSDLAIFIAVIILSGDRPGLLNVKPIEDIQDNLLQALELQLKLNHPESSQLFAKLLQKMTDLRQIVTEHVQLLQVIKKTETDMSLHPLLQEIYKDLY
# Chain of Peroxisome proliferator-activated receptor gamma/Nuclear receptor coactivator 1 (Q15788 whole entry, further chain): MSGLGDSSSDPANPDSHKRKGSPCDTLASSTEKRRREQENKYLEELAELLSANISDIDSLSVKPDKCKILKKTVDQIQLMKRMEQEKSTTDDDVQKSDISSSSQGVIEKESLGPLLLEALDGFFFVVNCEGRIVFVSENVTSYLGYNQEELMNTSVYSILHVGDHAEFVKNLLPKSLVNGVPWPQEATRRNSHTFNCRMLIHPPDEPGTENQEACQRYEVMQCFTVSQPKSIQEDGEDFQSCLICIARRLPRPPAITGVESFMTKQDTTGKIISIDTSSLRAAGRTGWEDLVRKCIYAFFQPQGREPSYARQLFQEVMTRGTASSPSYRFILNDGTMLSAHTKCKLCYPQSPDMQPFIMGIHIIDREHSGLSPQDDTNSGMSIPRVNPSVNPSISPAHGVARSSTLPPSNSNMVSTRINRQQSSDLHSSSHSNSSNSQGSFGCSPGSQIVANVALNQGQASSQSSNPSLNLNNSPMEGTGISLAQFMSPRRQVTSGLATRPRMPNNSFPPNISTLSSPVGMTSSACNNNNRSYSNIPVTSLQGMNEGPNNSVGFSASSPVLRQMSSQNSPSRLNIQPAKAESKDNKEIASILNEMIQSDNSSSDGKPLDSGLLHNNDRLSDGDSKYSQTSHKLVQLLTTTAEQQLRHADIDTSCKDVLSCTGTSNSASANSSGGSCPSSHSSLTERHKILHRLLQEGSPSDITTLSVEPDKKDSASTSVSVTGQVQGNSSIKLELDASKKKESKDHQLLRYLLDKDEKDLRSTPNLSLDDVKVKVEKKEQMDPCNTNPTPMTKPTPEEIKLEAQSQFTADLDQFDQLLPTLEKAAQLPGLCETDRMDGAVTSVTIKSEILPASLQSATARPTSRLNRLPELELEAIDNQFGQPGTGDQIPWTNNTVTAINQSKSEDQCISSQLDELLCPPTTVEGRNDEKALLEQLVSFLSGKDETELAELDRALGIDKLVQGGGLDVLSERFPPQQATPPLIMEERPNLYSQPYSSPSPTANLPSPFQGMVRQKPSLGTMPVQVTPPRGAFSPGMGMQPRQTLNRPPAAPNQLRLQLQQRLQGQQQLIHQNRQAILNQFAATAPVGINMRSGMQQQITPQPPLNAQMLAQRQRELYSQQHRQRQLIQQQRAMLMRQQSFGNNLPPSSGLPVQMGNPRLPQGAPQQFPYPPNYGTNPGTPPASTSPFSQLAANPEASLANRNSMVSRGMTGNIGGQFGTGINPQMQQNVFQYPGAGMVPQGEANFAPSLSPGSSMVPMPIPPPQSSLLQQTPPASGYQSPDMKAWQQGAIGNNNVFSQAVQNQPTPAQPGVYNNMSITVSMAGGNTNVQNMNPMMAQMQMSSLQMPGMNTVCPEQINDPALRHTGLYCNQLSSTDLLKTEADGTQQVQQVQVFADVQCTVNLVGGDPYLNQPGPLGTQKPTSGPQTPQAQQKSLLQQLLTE
# [8] = molecular target: Peroxisome proliferator-activated receptor gamma/Nuclear receptor coactivator 2 (Homo sapiens, UniProt P37231); assay type: functional;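 also: agonist potency for raising coactivator recruitment to the receptor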
# [9] = molecular target: Peroxisome proliferator-activated receptor gamma/Nuclear receptor coactivator 3 (Homo sapiens, UniProt P37231); assay type: functional;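 also: agonist potency for raising coactivator recruitment to the receptor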
# Chain of Peroxisome proliferator-activated receptor gamma/Nuclear receptor coactivator 3 (P37231 whole entry): as the sequence (P37231 whole entry) above
# Chain of Peroxisome proliferator-activated receptor gamma/Nuclear receptor coactivator 3 (Q9Y6Q9 whole entry, further chain): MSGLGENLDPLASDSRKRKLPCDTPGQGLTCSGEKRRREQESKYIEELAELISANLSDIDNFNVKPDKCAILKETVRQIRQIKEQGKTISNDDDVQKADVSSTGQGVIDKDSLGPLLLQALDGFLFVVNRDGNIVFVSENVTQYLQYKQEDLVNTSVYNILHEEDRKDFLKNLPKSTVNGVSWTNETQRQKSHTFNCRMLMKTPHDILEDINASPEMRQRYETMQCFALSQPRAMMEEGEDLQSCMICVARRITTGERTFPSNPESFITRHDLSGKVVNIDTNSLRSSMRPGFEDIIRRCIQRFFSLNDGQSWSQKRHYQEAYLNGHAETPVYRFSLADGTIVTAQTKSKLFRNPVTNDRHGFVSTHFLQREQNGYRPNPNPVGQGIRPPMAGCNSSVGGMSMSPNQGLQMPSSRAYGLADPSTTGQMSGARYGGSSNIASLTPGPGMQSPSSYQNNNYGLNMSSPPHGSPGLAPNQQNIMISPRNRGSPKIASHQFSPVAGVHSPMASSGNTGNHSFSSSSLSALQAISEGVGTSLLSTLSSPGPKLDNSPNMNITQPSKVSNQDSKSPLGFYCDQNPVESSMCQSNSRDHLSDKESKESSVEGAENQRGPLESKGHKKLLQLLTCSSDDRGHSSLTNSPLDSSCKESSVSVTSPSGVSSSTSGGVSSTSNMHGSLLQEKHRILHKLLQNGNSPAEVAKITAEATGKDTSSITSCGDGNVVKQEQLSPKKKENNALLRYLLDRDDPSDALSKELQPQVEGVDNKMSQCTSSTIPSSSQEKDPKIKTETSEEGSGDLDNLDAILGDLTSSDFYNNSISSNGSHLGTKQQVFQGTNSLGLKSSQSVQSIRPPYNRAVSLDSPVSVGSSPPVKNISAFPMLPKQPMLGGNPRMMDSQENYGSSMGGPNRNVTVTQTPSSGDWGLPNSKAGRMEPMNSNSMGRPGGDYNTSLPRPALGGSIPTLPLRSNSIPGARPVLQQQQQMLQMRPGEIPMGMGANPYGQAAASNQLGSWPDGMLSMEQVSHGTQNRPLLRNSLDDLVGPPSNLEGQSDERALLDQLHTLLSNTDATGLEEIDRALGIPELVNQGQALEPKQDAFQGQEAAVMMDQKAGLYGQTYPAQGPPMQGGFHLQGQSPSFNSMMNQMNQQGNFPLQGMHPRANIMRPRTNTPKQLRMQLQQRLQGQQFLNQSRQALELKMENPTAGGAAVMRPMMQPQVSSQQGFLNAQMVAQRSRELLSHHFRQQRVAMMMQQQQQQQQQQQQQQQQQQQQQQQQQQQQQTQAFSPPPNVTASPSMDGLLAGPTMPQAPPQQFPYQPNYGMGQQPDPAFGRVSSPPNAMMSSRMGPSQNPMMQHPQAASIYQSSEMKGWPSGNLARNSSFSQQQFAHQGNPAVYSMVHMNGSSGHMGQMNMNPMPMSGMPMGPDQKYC
# [10] = growth suppression of beta-catenin-knockout colon cells, dose response, cell-based, HCT116, human colon tumor (AID 1045); assay type: functional;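 also: HCT116 colon tumor cells with beta catenin knocked out; cells exposed to compound for 60 hours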
# [11] = Luminescence Cell-Based Dose Retest to Confirm Inhibitors of Cancer Stem Cells. [Related pubchem assays (depositor defined):AID2717, AID2721]; assay type: functional, Homo sapiens; details: Homo sapiens
# Large T antigen = Large T antigen (Simian virus 40, UniProt P03070); assay type: functional, Betapolyomavirus macacae;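 also: Confirmatory-stage PubChem screen for compounds that inhibit SV40 T antigen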
# [12] = growth suppression of PTEN-null colon cells, dose response, cell-based, HCT116 PTEN knockout (AID 1047); assay type: functional;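 also: HCT116 colon tumor cells with PTEN knocked out; cells exposed to compound for 60 hours before readout; potency for loss of cell viability measured by luminescence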
# INS1 = test: beta cell apoptosis inhibitors, cytokine rescue, dose response, luminescence, retest (AID 449756); assay type: functional, cell-based; details: Rattus norvegicus;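 also: cell death triggered by IL-1 beta plus TNF-alpha plus IFN-gamma mixture; protective hits raise ATP signal compared with cytokine alone wells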
# [13] = THP-1 cell cytotoxicity, dose response, cytotoxicity control for non-replicating M. tuberculosis project (AID 489025); assay type: functional
# cells = assay type: functional
# [14] = Vero E6 cell cytotoxicity, dose response, cytotoxicity control for non-replicating M. tuberculosis project, secondary assay (AID 492998); assay type: functional, VeroE6; details: Vero C1008
# [15] = HepG2 cell cytotoxicity, dose response, cytotoxicity control for non-replicating M. tuberculosis project (AID 489018); assay type: functional; details: Mycobacterium tuberculosis
# [16] = molecular target: T5, Corticotropin-releasing factor receptor 2/Corticotropin-releasing factor-binding protein (Homo sapiens, UniProt P24387+Q13324); test: Dose Response confirmation of uHTS hits for small molecule antagonists of the CRF-binding protein and CRF-R2 receptor complex.; assay type: functional; details: read-out: IC50_Mean
# T5 sequence (Q13324 whole entry): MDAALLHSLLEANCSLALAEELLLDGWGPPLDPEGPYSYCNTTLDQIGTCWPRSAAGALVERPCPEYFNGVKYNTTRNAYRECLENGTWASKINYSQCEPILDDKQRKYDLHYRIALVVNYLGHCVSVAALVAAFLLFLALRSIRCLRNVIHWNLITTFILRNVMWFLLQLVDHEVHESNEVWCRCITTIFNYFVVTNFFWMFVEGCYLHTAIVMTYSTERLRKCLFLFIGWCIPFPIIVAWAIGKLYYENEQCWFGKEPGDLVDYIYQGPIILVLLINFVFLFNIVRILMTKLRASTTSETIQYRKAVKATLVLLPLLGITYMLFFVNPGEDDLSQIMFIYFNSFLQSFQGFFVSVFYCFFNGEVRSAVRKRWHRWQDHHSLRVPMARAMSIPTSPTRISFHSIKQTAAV
# T5 sequence (P24387 whole entry): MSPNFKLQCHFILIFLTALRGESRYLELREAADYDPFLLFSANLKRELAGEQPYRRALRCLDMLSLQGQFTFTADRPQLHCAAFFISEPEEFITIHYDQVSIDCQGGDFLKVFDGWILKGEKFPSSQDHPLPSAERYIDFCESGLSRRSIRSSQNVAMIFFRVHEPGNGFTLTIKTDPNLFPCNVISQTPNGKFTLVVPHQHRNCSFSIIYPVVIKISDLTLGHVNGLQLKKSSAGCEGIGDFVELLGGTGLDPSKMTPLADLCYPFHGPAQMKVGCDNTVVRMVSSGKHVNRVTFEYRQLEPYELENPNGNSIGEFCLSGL
# [17] = molecular target: T5, Corticotropin-releasing factor receptor 2/Corticotropin-releasing factor-binding protein; test: activators of CRF receptor 2 with binding protein – uHTS hits, confirmation (AID 602473); assay type: functional; details: read-out: EC50_Mean
# Cytochrome P450 3A4 = Cytochrome P450 3A4 (Homo sapiens, UniProt P08684);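 also: CYP3A4 tested as one member of a cytochrome P450 panel screen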
# Vero = test: host cell cytotoxicity of antiviral hits, dose response, cytotoxicity control for West Nile virus antiviral project, secondary assay (AID 1650); assay type: functional, Chlorocebus sabaeus; details: Chlorocebus sabaeus, Vero
# [18] = molecular target: T6, Dual specificity protein phosphatase 6 (Rattus norvegicus, UniProt Q64346)
# T6 sequence (Q64346 whole entry): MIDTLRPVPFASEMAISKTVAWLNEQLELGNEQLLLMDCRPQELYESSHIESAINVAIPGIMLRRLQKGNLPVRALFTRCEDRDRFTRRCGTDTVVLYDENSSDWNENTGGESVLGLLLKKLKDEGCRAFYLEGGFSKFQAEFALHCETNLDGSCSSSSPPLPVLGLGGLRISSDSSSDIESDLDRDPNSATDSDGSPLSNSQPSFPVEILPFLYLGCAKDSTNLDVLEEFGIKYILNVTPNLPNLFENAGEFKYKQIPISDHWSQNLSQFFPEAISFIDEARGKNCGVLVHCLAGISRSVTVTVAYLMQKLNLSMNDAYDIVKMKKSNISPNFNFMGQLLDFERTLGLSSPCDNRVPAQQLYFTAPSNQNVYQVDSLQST
# [19] = molecular target: T6, Dual specificity protein phosphatase 6; assay type: functional
# [20] = molecular target: T7, Tyrosine-protein phosphatase non-receptor type 7 (Homo sapiens, UniProt P35236); assay type: functional
# T7 sequence (P35236 whole entry): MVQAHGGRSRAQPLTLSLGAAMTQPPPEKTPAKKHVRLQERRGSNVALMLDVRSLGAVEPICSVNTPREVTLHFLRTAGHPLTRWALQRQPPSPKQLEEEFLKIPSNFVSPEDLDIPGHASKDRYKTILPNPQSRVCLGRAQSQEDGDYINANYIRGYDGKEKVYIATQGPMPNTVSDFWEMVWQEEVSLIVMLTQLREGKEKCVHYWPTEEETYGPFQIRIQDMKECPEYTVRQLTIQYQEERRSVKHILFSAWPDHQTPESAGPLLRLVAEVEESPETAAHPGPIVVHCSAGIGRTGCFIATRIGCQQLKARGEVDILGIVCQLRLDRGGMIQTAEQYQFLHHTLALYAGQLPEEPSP
smiles,measurement,setting,value
O=S(=O)(Nc1cnc2ccccc2c1)c1cc(Cl)ccc1Cl,IC50,[1],49.6 µM (active)
same,IC50,[2],> 100 µM (not active)
O=C(O)c1ccc(Cl)cc1NC(=O)C1CCOCC1,IC50,Hexokinase,> 25 µM (inactive)
C[N+]1(CC(O)COc2ccccc2)CCN(C(=O)c2ccc([N+](=O)[O-])cc2)CC1 (centres undefined),IC50,[3],2.82 µM (active)
same,IC50,[4],3.44 µM (active)
Nc1c2c(nc3sc4c(c13)CCCC4)CCCCCC2,IC50,[5],> 35 µM (not active)
same,IC50,[6],26.7 µM (not active)
COc1ccccc1C(=O)Nc1cccc(-c2cn3ccsc3n2)c1,EC50,[7],> 79.4 µM (not active)
same,EC50,[8],> 79.4 µM (not active)
same,EC50,[9],> 79.4 µM (not active)
COc1cc(SC#N)ccc1/N=C/c1c(C)[nH]n(-c2ccc(C)cc2)c1=O,EC50,[10],107 µM (active)
same,AC50,[11],2.9 µM (active)
same,IC50,Large T antigen,21.2 µM (active)
same,EC50,[7],> 79.4 µM (not active)
same,EC50,[8],> 79.4 µM (not active)
same,EC50,[12],56.6 µM (active)
same,AC50,INS1,3.6 µM (active)
same,EC50,[9],> 79.4 µM (not active)
O=C(CSCc1ccc(Cl)cc1)N/N=C/c1c(Cl)cccc1Cl,IC50,[5],6.47 µM (active)
same,IC50,[6],8.3 µM (active)
COc1ccc(C(=O)Nc2cc(Cl)ccc2C(=O)O)cn1,IC50,Hexokinase,> 25 µM (inactive)
CCc1ccc2c(c1)Sc1ccccc1CC2N1CCN(C)CC1 (centres undefined),CC50,[13],15.8 µM (active)
same,IC50,cells,14.1 µM (active)
same,CC50,[14],> 20 µM (active)
same,CC50,[15],> 20 µM (active)
C/C(=N\OC(=O)c1ccc(OC(C)C)cc1)c1ccc(C)c(C)c1,IC50,[16],> 47.1 µM (inactive)
same,IC50,[5],7.94 µM (active)
same,IC50,[6],7.08 µM (active)
same,EC50,[17],> 53 µM (inactive)
Cc1nc(SCC(=O)c2ccc(Cl)s2)c2oc3ccccc3c2n1,AC50,Cytochrome P450 3A4,2.82 µM (inconclusive)
same,EC50,[7],> 79.4 µM (not active)
same,EC50,[8],> 79.4 µM (not active)
same,CC50,Vero,23.6 µM (active)
same,EC50,[9],> 79.4 µM (not active)
CCn1c(=O)n(Cc2ccc([N+](=O)[O-])cc2)c(=O)n([C@@H](Cc2ccccc2)C(=O)O)c1=O,IC50,[18],> 100 µM (inactive)
same,IC50,[2],> 100 µM (not active)
same,IC50,[19],> 100 µM (inactive)
same,IC50,[20],> 100 µM (not active)
CC(C)(C)c1ccc(C(=O)Nc2cc(Cl)ccc2C(=O)O)cc1,IC50,Hexokinase,2.12 µM (active)
